Like-named read-outs stand apart in the source and are kept apart here.
How the values were obtained:
T1SP10MN(A) (−Cys) [1] = tested on: T1SP10MN(A) (−Cys)
Description: Animals were bled prior to initial immunization, and at indicated time points. Serum was analyzed from individual mice, or as pools from mice within groups. Vaginal lavage was performed on euthanized mice to assess antibody levels. This was accomplished by instillation of 75:1 RPMI-10 into the vaginal vault of female mice using a 200:1 pipette. The vault was washed by repeated delivery and removal of fluid, which was then added to 10:1 of FBS. Vaginal lavage were analyzed as pools.
For analysis of HIV peptide-specific antibody and subclass distribution, peptide was suspended in either carbonate buffer (15 mM Na2CO3, 35 mM NaHCO3, pH 9.6), or PBS, at a concentration of 1 μg/ml and plated to 96 well microtiter plates (Nunc) in a volume of 100:1. After overnight incubation at 37° C., plates were washed, and blocked (0.1% gelatin/PBS) at room temperature for 2-4 hours. ELISA plates were washed with wash buffer (PBS, 0.1% Tween™20) before addition of serially diluted serum (PBS, 0.1% gelatin, 0.05% Tween™20, 0.02% sodium azide). After a four hour incubation, wells were washed and appropriate dilutions of biotinylated anti-isotype/subclass antibodies were added for incubation at 4° C. overnight. Wells were washed and incubated with strepavidin-conjugated horseradish peroxidase. After incubation, wells were washed, and developed with ABTS. Wells were read at 405 nm. Titers were standardized using control sera.
Vaginal IgG and IgA anti-peptide antibody titers were measured from lavage obtained 2 weeks after final immunization. Groups of 5 Balb/c female mice were immunized with 25 μg T1SP10MN(A) (−Cys) and the indicated adjuvant formulations on days 0, 28, and 42. Vaginal antibody titers were determined from pool d lavage fluid.
HIV peptide-specific vaginal lavage endpoint reciprocal endpoint IgG and IgA antibody titers were measured from pooled serum (n=5 Balb/c) 15 days after secondary immunization. […] Aqueous MPL™ was delivered at 50 μg per dose. Recombinant murine IL-12 was delivered at 40 ng/mouse. Recombinant murine GM-CSF was delivered at 10 μg/mouse.
Vaginal IgG and IgA anti-peptide antibody titers were measured from lavage 41 days after initial immunization, 13 days after secondary immunization.

T1SP10MN(A) (−Cys) [2] = settings: Experiment 3, 14 days after second immunization
Description: (§1) The protocols of Experiment 2 were followed, with Swiss-Webster mice used instead of Balb/c mice. Only reciprocal anti-peptide IgG endpoint titers and vaginal lavage endpoint reciprocal endpoint IgG and IgA antibody titers were measured in this experiment.
Reciprocal anti-T1SP10MN(A) (−Cys) IgG endpoint titers were measured from geometric means from individual Swiss-Webster mice (GMT), obtained 14 days after the second immunization. IgG1 and IgG2a subclass endpoint titers were also measured from pooled serum. For recipients of Freund's adjuvants, mice were primed with peptide emulsified in CFA, and boosted with IFA. […] Aqueous MPL™ was delivered at 50 μg per dose. Recombinant murine IL-12 was delivered at 40 ng/mouse. Recombinant murine GM-CSF was delivered at 10 μg/mouse.

T1SP10MN(A) (−Cys) [3] = settings: Experiment 3; pooled, n=5 Swiss-Webster; 15 days after secondary immunization
Description: as §1
Aqueous MPL™ was delivered at 50 μg per dose. Recombinant murine IL-12 was delivered at 40 ng/mouse. Recombinant murine GM-CSF was delivered at 10 μg/mouse.

spleen cells = test: Secretion of IL-4 by spleen cells (ELISA); type: cell-based, Balb/c mice; settings: Experiment 2, 96 hours culture, after subtraction of lysozyme value
Description: For proliferation assays and in vitro cytokine analysis, spleen cells were obtained from mice at the indicated time points. Single cell suspensions were prepared from pools of 3-5 mice as indicated in Results. For proliferation and cytokine analysis, cells were suspended in round bottom 96 well culture plates precoated overnight with HIV peptide antigens, control proteins, or RPMI-10 only. Spleen cells were added at 5×10^5 cells/well using culture medium having 2× supplements. Cell culture supernatants were harvested from triplicate wells for cytokine analysis three or six days after culture initiation. Immediately after supernatant harvest, cultures were pulsed with ^3H-thymidine for 18-24 hours, and harvested to quantify cell proliferation.
For cytokine analysis, cell culture supernatants were added to wells coated with BVD6-11B11 (for anti-IL4), or R4-6A2 (for interferon-gamma). After incubation and washing, wells were developed using biotin-labeled BVD6-24G2 (for IL4) or XMG 1.2 (for interferon-gamma). The concentration of cytokines was determined using a standard curve prepared from recombinant murine interferon-gamma or interleukin-4. All cytokine reagents were purchased from Pharmingen (San Diego, Calif.).
Interleukin-4 secreted into culture by spleen cells stimulated with 25 μg T1SP10MN(A) (−Cys) was measured. Spleen cells were harvested from pools of five Balb/c female mice and cultured with the indicated antigenic stimuli (50 ng IL-12, 10 μg GM-CSF, 50 μg MPL™ as indicated) for either three or six days. Interleukin-4 levels were determined by ELISA, and compared to a standard having a known concentration. Blank wells indicate that the assay could not detect Interleukin-4 from those culture conditions. The lower limit of detection sensitivity was 22 Units/ml.
Cells were cultured for a total of 96 hours. Cell culture supernatants were analyzed for IL-4 by ELISA. All values were after subtraction from those determined from supernatants of cells stimulated with 10 μg of an irrelevant protein (lysozyme). Results which were below the limit of detection, after subtraction from stimulation induced with lysozyme are indicated as “bd”. The adjuvants were 40 ng IL-12, 10 μg GM-CSF and 50 μg MPL™.

T1SP10MN(A) (−Cys) [4] = tested on: T1SP10MN(A) (−Cys); remark: listed apart in the source
Description: Mice were immunized subcutaneously in the rump, in a total volume of 0.2 ml equally divided on each side of the tail. Immunizations were administered at varying time intervals, as indicated below. Antigen and cytokines were diluted in phosphate buffered saline to the appropriate concentrations and formulated with adjuvants less than 16 hours prior to immunization, under sterile conditions. Vaccines were mixed by gentle agitation, and stored at 4° C. Formulations were mixed by vortex immediately prior to immunization.
Reciprocal anti-HIV peptide-specific IgG endpoint titers were measured from pooled serum (n=5 Balb/c) at the indicated time points after initial immunization. Mice were immunized subcutaneously in the rump with 25 μg of T1SP10MN(A) (−Cys), unless otherwise indicated, on day 0, and on day 27. For recipients of Freund's adjuvants, mice were primed with peptide emulsified in CFA, and boosted with IFA. MPL™ SE was provided as an emulsion containing 2% squalene oil and 50 μg MPL™ per dose. SE is an oil-in-water emulsion vehicle consisting of squalene, glycerol, and an emulsifying agent. Recombinant murine IL-12 was delivered at 50 ng/mouse. Recombinant murine GM-CSF was delivered at 10 μg/mouse.
Reciprocal endpoint IgG subclass titers were measured from pooled serum (n=5 Balb/c) six weeks after initial immunization, two weeks after secondary immunization. Mice were immunized subcutaneously in the rump with 25 μg of peptide, unless otherwise indicated. For recipients of Freund's adjuvants, mice were primed with peptide emulsified in complete Freund's adjuvant, and boosted with incomplete Freund's adjuvant on weeks four and six. MPL™ SE was provided as an emulsion containing 2% squalene oil and 50 μg MPL™ per dose. SE is an oil-in-water emulsion vehicle consisting of squalene, glycerol, and an emulsifying agent. Recombinant murine IL-12 was delivered at 50 ng/mouse. Recombinant murine GM-CSF was delivered at 10 μg/mouse.
Mice were immunized subcutaneously in the rump, in a total volume of 0.2 ml equally divided on each side of the tail. Immunizations were administered on days 0 and 21 with 25 μg of the HIV peptide, together with the indicated amount of adjuvant(s).
Reciprocal anti-peptide IgG endpoint titers were measured from either geometric means from individual mice (GMT) or from pooled serum (n=5 Balb/c), obtained 14 days after the second immunization. IgG1 and IgG2a subclass endpoint titers were also measured from pooled serum.

[5] = Experiment 2, pooled, n=5 Balb/c, 15 days after secondary immunization
[6] = Experiment 4, Balb/c, day 41, 13 days after secondary immunization
[7] = Experiment 2, pooled serum n=5 Balb/c, 14 days after second immunization
[8] = Experiment 4, individual Balb/c mouse, day 41, 13 days after secondary immunization (days 0 and 28)
[9] = Experiment 4, pooled serum n=5 Balb/c, day 41, 13 days after secondary immunization
[10] = Experiment 5, pooled serum n=5 Balb/c, immunized days 0 and 22, bled day 42

With “3-O-deacylated monophosphoryl lipid A [MPL ™]” the “Vaginal lavage reciprocal anti-T1SP10MN(A) (−Cys) IgA endpoint titer” value (T1SP10MN(A) (−Cys) [1]; [5]) was <10, the “Vaginal lavage reciprocal anti-T1SP10MN(A) (−Cys) IgG endpoint titer” value (T1SP10MN(A) (−Cys) [1]; [5]) was <10 and the “Vaginal lavage IgA anti-T1SP10MN(A) (−Cys) antibody titer” value (T1SP10MN(A) (−Cys) [1]; [6]) was <10. For the same substance, the “Vaginal lavage IgG anti-T1SP10MN(A) (−Cys) antibody titer” value (T1SP10MN(A) (−Cys) [1]; [6]) was 12, the “Reciprocal anti-HIV peptide IgG (GMT) endpoint titer” value (T1SP10MN(A) (−Cys) [2]; individual Swiss-Webster mice) was 1,960 and the “Reciprocal anti-HIV peptide IgG1 (pool) endpoint titer” value (T1SP10MN(A) (−Cys) [2]; pooled serum Swiss-Webster) was <1000. The “Reciprocal anti-HIV peptide IgG2a (pool) endpoint titer” value (T1SP10MN(A) (−Cys) [2]; pooled serum Swiss-Webster) was <1000, the “Vaginal lavage reciprocal anti-HIV peptide IgA endpoint titer” value (T1SP10MN(A) (−Cys) [3]) was <10 and the “Vaginal lavage reciprocal anti-HIV peptide IgG endpoint titer” value (T1SP10MN(A) (−Cys) [3]) was <10. For the same substance, the “Secretion of IL-4, Con A 5 μg/ml” value (spleen cells) was 286 pg/mL, the “Secretion of IL-4, HIV Peptide 1.1 μg/ml” value (spleen cells; bd = below limit of detection) was 17 pg/mL and the “Secretion of IL-4, HIV Peptide 3.3 μg/ml” value (spleen cells; bd = below limit of detection) was “bd”. For the same substance, the “Secretion of IL-4, HIV Peptide 10 μg/ml” value (spleen cells; bd = below limit of detection) was 5 pg/mL, the “Reciprocal anti-T1SP10MN(A) (−Cys) IgG (GMT) endpoint titer” value (T1SP10MN(A) (−Cys) [4]; Experiment 2, geometric mean of individual Balb/c mice, 14 days after second immunization) was 241,918 and the “Reciprocal anti-T1SP10MN(A) (−Cys) IgG1 (pool) endpoint titer” value (T1SP10MN(A) (−Cys) [4]; [7]) was 134,428. The “Reciprocal anti-T1SP10MN(A) (−Cys) IgG2a (pool) endpoint titer” value (T1SP10MN(A) (−Cys) [4]; [7]) was 7,127, the “Reciprocal anti-T1SP10MN(A) (−Cys) IgG (pool) endpoint titer” value (T1SP10MN(A) (−Cys) [4]; Experiment 2, pooled serum n=5 Balb/c, immunized days 0 and 21, 14 days after second immunization) was 219,705 and the “IgG serum titer specific for T1SP10MN(A) (−Cys), Mouse #1” value (T1SP10MN(A) (−Cys) [4]; [8]) was 50. For the same substance, the “IgG serum titer specific for T1SP10MN(A) (−Cys), Mouse #2” value (T1SP10MN(A) (−Cys) [4]; [8]) was 151,846, the “IgG serum titer specific for T1SP10MN(A) (−Cys), Mouse #3” value (T1SP10MN(A) (−Cys) [4]; [8]) was 249,054 and the “IgG serum titer specific for T1SP10MN(A) (−Cys), Mouse #4” value (T1SP10MN(A) (−Cys) [4]; [8]) was 436,378. For the same substance, the “IgG serum titer specific for T1SP10MN(A) (−Cys), Mouse #5” value (T1SP10MN(A) (−Cys) [4]; [8]) was 1,245,470, the “Geometric Mean IgG serum titer specific for T1SP10MN(A) (−Cys), GMT” value (T1SP10MN(A) (−Cys) [4]; Experiment 4, n=5 Balb/c, day 41, 13 days after secondary immunization) was 63,452 and the “Reciprocal anti-T1SP10MN(A) (−Cys) IgG1 endpoint titer” value (T1SP10MN(A) (−Cys) [4]; [9]) was 33,544. The “Reciprocal anti-T1SP10MN(A) (−Cys) IgG2a endpoint titer” value (T1SP10MN(A) (−Cys) [4]; [9]) was 212, the “Reciprocal anti-T1SP10MN(A) (−Cys) IgG2b endpoint titer” value (T1SP10MN(A) (−Cys) [4]; [9]) was <100 and the “Reciprocal anti-T1SP10MN(A) (−Cys) IgG GMT” value (T1SP10MN(A) (−Cys) [4]; Experiment 5, geometric mean n=5 Balb/c, immunized days 0 and 22, bled day 42) was 2,032,441. The “Reciprocal anti-T1SP10MN(A) (−Cys) IgG1 endpoint titer” value (T1SP10MN(A) (−Cys) [4]; [10]) was 1,314,771, the “Reciprocal anti-T1SP10MN(A) (−Cys) IgG2a endpoint titer” value (T1SP10MN(A) (−Cys) [4]; [10]) was 9,688 and the “Reciprocal anti-T1SP10MN(A) (−Cys) IgG2b endpoint titer” value (T1SP10MN(A) (−Cys) [4]; [10]) was 13,716. The “Reciprocal anti-T1SP10MN(A) (−Cys) IgG endpoint titer” value (T1SP10MN(A) (−Cys) [4]; [10]) was 2,635,118.

From patent US7611721B1, “Adjuvant combination formulations” (priority 2000, dated 2009)
